Experimental data from patent publication US20170055529A1, “BROAD SPECTRUM WEED CONTROL IN FLOODED RICE BY IN-WATER APPLICATION OF AUXIN HERBICIDES” (priority 2015, published 2017).

What was measured:
Assay type in all cases: in vivo
[1] = test system: ORYSP = Oryza sativa (transplanted paddy rice); experiment: Greenhouse in-water application (large pots), crop injury
Description: (§1) Weed seeds or nutlets of the desired test plant species were planted in puddled soil (mud) prepared by mixing shredded topsoil and deionized (DI) water in a 1:1 ratio in a standard cement mixer. […] Osmocote® (17:6:10 N:P:K; 0.5 teaspoon) was added to the bottom of a container. The container is a high-density polyethylene (HDPE) round container (4.163 L (1.1 gallon), 15 cm high×20.55 cm diameter; for treatment purposes, the surface area is calculated as 331 cm^2 with 1 hectare equivalent to 10^8 cm^2). The mud mixture (2,750 mL) was added to the container filling it half full. Stakes were placed horizontally in each container to create separate areas for which to plant each different plant species. Water was added on a regular basis to maintain the paddy flood, and supplemental lighting was provided with overhead metal halide 1000-Watt lamps as necessary.
(§2) Once the plants had reached the proper size (the growth stage of the various species ranged from 2 to 4 leaves), the containers were flooded with city water to a depth of 3 cm submerging the plants 80-100%. The outside of each container was measured and marked at a 3-cm line with a black permanent marker to eliminate water level variability during the trial period. Water was added daily to maintain this water depth. Triclopyr triethylammonium (as Garlon® 3 A, 360 g ae/L); triclopyr butoxyethyl ester (as Garlon® 4, 480 g ae/L); fluroxypyr methylheptyl ester (meptyl or MHE, as Starane® Ultra, 333 g ae/L); fluroxypyr acid (850 grams acid equivalent per kilogram (g ae/kg)); 2,4-dichlorophenoxyacetic acid dimethylammonium (2,4-D DMA, as Weedar® 64 EC, 456 g ae/L); 2,4-dichlorophenoxyacetic acid 2-ethylhexyl ester (2,4-D 2-EHE, as Agri Star®, 456 g ae/L); clopyralid olamine (as Stinger®, 360 g ae/L); and penoxsulam (as Grasp® SC, 240 g ai/L) were used. Each herbicide treatment for each pot was mixed in water (80 mL) and applied directly into the paddy water at rates adjusted to the surface area. The dry formulations were pre-weighed based on the rate of the active ingredient to be applied on a per unit area basis, placed in 30 mL vials, and capped. Granules were spread onto the top of the water in each pot and dispersed throughout the water. Treatments were replicated 3 times.
(§3) The treated plants and control plants were placed in a greenhouse as described above and water was added as needed to maintain a flood depth of 3 cm. […]

[2] = test system: SCPJU = Schoenoplectus juncoides (Japanese bulrush); experiment: Greenhouse in-water herbicidal activity (small pots)
Source text: (§4) Weed seeds of the desired test plant species were planted in puddled soil (mud) prepared by mixing a non-sterilized mineral soil (approximately 50 percent silt, 26 percent clay, and 24 percent sand, with a pH of about 7.6 and an organic matter content of about 2.9 percent) and water at a 1:1 volumetric ratio. The prepared mud was dispensed in 365 milliliter (mL) aliquots into 16-ounce (oz.) non-perforated plastic pots with a surface area of 86.59 square centimeters (cm^2) leaving a headspace of 3 centimeters (cm) in each pot. Mud was allowed to dry overnight prior to planting or transplanting. Rice seeds were planted in Sun Gro® MetroMix® 360 planting mixture, which typically has a pH of 6.0 to 6.8 and an organic matter content of about 30 percent, in plastic plug trays. Seedlings at the second or third leaf stage of growth were transplanted into 840 mL of mud contained in 32-oz. non-perforated plastic pots with a surface area of 86.59 cm^2 four days prior to herbicide application. The paddy was created by filling the headspace of the pots with 2.5 to 3 cm of water. When required to ensure good germination and healthy plants, a fungicide treatment and/or other chemical or physical treatment was applied. The plants were grown for 4-22 days (d) in a greenhouse with an approximate 14-hour (h) photoperiod which was maintained at about 29° C. during the day and 26° C. during the night. Nutrients were added as Osmocote® (19:6:12, Nitrogen:Phosphorus:Potassium (N:P:K)+minor nutrients) at 2 g per 16 oz. pot and 4 g per 32 oz. pot. Water was added on a regular basis to maintain the paddy flood, and supplemental lighting was provided with overhead metal halide 1000-Watt lamps as necessary. The plants were used for testing when they reached the second or third true leaf stage.
(§5) Triclopyr triethylammonium (as Grandstand® R, 359.5 grams acid equivalent per liter (g ae/L)); fluroxypyr methylheptyl ester (meptyl or MHE, as Starane™, 179.8 g ae/L); 2,4-dichlorophenoxyacetic acid dimethylammonium (2,4-D DMA, as Weedar® 64, 455.4 g ae/L); and penoxsulam (as Grasp® SC, 239.7 grams active ingredient per liter (g ai/L) were used. Measured amounts of formulated compounds were placed in individual 120 mL glass vials and were dissolved in 40 mL of an aqueous mixture containing 1.25% volume per volume (v/v) Agri-Dex® crop oil concentrate. Generally, multiple concentrations were tested utilizing the same stock solution. Applications were made by injecting an appropriate amount of the application solution into the aqueous layer of the paddy. Control plants were treated in the same manner with the solvent blank.
(§6) The treated plants and control plants were placed in a greenhouse as described above and water was added as needed to maintain a paddy flood. After approximately 3 weeks the condition of the test plants, compared with that of the untreated plants, was determined visually and scored on a scale of 0 to 100 percent where 0 corresponds to no injury or growth reduction and 100 corresponds to complete kill.

[3] = test system: MOOVA = Monochoria vaginalis (monochoria); experiment: as above
Source text: as §4, §5, §6

[4] = test system: ECHCG = Echinochloa crus-galli (barnyardgrass); experiment: as above
Source text: as §4, §5, §6

[5] = test system: CYDPI = Cyperus difformis (small-flower flatsedge); experiment: as above
Source text: as §4, §5, §6

[6] = test system: MOOVA = Monochoria vaginalis (monochoria); experiment: Greenhouse in-water herbicidal activity (large pots); settings: for Percent (%) Visual Injury Ratings - 16 DAA, MOOVA / Percent (%) Visual Injury Ratings - 22 DAA, MOOVA: greenhouse large pots; for pest or weed control at 280 g/ha / pest or weed control at 560 g/ha / pest or weed control at 1120 g/ha: Pontederia vaginalis, 744 h, read-out: Percent (%) Visual Injury Ratings - 31 DAA, MOOVA
Description: as §1, §2, §3

Row | Compound | Percent (%) Visual Injury Ratings - 31 DAA, ORYSP ([1]; 280 g ae/ha in-water) | Percent (%) Visual Injury Ratings - 31 DAA, ORYSP ([1]; 560 g ae/ha in-water) | Percent (%) Visual Injury Ratings - 31 DAA, ORYSP ([1]; 1120 g ae/ha in-water) | Percent (%) Visual Injury Ratings - 20 DAA, SCPJU ([2]; 280 g ae/ha in-water) | Percent (%) Visual Injury Ratings - 20 DAA, SCPJU ([2]; 560 g ae/ha in-water) | Percent (%) Visual Injury Ratings - 20 DAA, SCPJU ([2]; 1120 g ae/ha in-water) | Percent (%) Visual Injury Ratings - 20 DAA, MOOVA ([3]; 280 g ae/ha in-water) | Percent (%) Visual Injury Ratings - 20 DAA, MOOVA ([3]; 560 g ae/ha in-water) | Percent (%) Visual Injury Ratings - 20 DAA, MOOVA ([3]; 1120 g ae/ha in-water) | Percent (%) Visual Injury Ratings - 20 DAA, ECHCG ([4]; 280 g ae/ha in-water) | Percent (%) Visual Injury Ratings - 20 DAA, ECHCG ([4]; 560 g ae/ha in-water) | Percent (%) Visual Injury Ratings - 20 DAA, ECHCG ([4]; 1120 g ae/ha in-water) | Percent (%) Visual Injury Ratings - 20 DAA, CYDPI ([5]; 280 g ae/ha in-water) | Percent (%) Visual Injury Ratings - 20 DAA, CYDPI ([5]; 560 g ae/ha in-water) | Percent (%) Visual Injury Ratings - 20 DAA, CYDPI ([5]; 1120 g ae/ha in-water) | Percent (%) Visual Injury Ratings - 16 DAA, MOOVA ([6]; 35 g ae/ha) | Percent (%) Visual Injury Ratings - 22 DAA, MOOVA ([6]; 35 g ae/ha) | Percent (%) Visual Injury Ratings - 16 DAA, MOOVA ([6]; 70 g ae/ha) | Percent (%) Visual Injury Ratings - 22 DAA, MOOVA ([6]; 70 g ae/ha) | Percent (%) Visual Injury Ratings - 16 DAA, MOOVA ([6]; 140 g ae/ha) | also measured
1 | O=C(O)COc1ccc(Cl)cc1Cl [2,4-D DMA (Weedar ® 64), dimethylammonium 2-(2,4-dichlorophenoxy)acetate] | 0% | 3% | 4% | 70% | 100% | 100% | 90% | 100% | 99% | 0% | 20% | 80% | 90% | 100% | 100% | 98% | 84% | 90% | 72% | 87% | Percent (%) Visual Injury Ratings - 22 DAA, MOOVA ([6]; 140 g ae/ha): 88%; Percent (%) Visual Injury Ratings - 16 DAA, MOOVA ([6]; 280 g ae/ha): 89%; Percent (%) Visual Injury Ratings - 22 DAA, MOOVA ([6]; 280 g ae/ha): 98%; pest or weed control at 280 g/ha [6]: 100%; pest or weed control at 560 g/ha [6]: 100%; pest or weed control at 1120 g/ha [6]: 100%
2 | O=C(O)COc1nc(Cl)c(Cl)cc1Cl [Triclopyr triethanolamine (Garlon ® 3A), triethylammonium 2[(3,5,6-trichloro-2-pyridinyl)oxy]acetate] | 1% | 5% | 70% | 70% | 95% | 100% | 95% | 99% | 100% | 40% | 70% | 85% | 100% | 100% | 100% | 84% | 92% | 89% | 89% | 78% | Percent (%) Visual Injury Ratings - 22 DAA, MOOVA ([6]; 140 g ae/ha): 82%; Percent (%) Visual Injury Ratings - 16 DAA, MOOVA ([6]; 280 g ae/ha): 98%; Percent (%) Visual Injury Ratings - 22 DAA, MOOVA ([6]; 280 g ae/ha): 100%; pest or weed control at 280 g/ha [6]: 100%; pest or weed control at 560 g/ha [6]: 100%; pest or weed control at 1120 g/ha [6]: 100%
